Laboratory results as given in patent US5238936A, “Trisubstituted triazines” (Adir et Compagnie, priority 1991, dated 1993).

How the values were obtained:
line DC-3F/AD [1] = experiment: Cytotoxicity (Microculture Tetrazolium Assay): reversal of resistance to actinomycin D, line DC-3F/AD; format: cell-based, Chinese hamster; conditions: 4 days
Source text: The pharmacological study of the compounds of the present invention consisted first of all in an evaluation in vitro carried out on resistant cells. The parameter measured is the cytotoxicity of the antitumour drug, quantified in the absence and in the presence of the reversing compound.
The cells are distributed on microplates and exposed to the cytotoxic compounds (actinomycin D for line DC-3F/AD and adriamycin for line KB-Al) at 9 concentrations (2 by 2 series dilutions). The compounds tested for their capacity to reverse MDR are added at the same time as the cytotoxic agent.
The cells are then incubated for 4 days. […] The results are expressed as a reversion factor (RF): PG,29 [formula]

line DC-3F/AD [2] = experiment: Flow cytometry: intracellular accumulation of adriamycin by cells of the line DC-3F/AD; format: cell-based, Chinese hamster; conditions: ADR 50 μM, 5 hours
Source text: Also measured was the effect of the compounds on the intracellular concentration of the cytotoxic agent. In effect, the known compounds for reversing MDR act by increasing the intracellular concentration of cytotoxic agent. This effect is the consequence of inhibiting the action of gP 170 which is responsible for the efflux of the drug.
By measuring that fluorescence, it is thus possible to obtain a relative measurement of the intracellular concentration of ADR.
The cells 500×10^3 per ml were exposed simultaneously to ADR at a fixed concentration (50 μM) and to the tested compounds at various concentrations. After 5 hours' incubation, the intracellular accumulation of ADR was evaluated by FCM. […] The analysis of each of the samples was carried out on a total of 10,000 cells at a rate of 1,000 cells per second.
The results were presented in the form of linear histograms of the intracellular ADR fluorescence.
Expression of the results: for each of the histograms the mean fluorescence per channel (MEAN) was determined by the information system of the apparatus. For all experiments:
a negative control (cells without ADR) fixed the autofluorescence threshold.
a positive control (cells with ADR) determined the MEAN value=MN1.
the "test" tubes (cells with ADR and with compound) were used to determine, for each of the compounds and at each of the concentrations, the MEAN values=MN2.
The results are expressed in the form of variations from the mean fluorescence obtained for each of the "test" tubes (MN2) in relation to the mean fluorescence obtained with the positive control (MNl): VAR-MEAN=MN2-MN1. The parameter expressed is thus the increase in ADR fluorescence in the presence of the tested compounds.

resistant line P/388/VCR = experiment: Antitumour activity in vivo: increase in antitumour activity of vincristine on murine leukaemia P 388/VCR; set-up: species or system murine; female B6D2Fl mice; conditions: with vincristine […] i.p., ± sem, no compound: 146 ± 2
Source text: This study was completed by an in vivo study, using a murine leukaemia resistant to vincristine (P/388/VCR) and using the compounds in association with vincristine.
The sensitive parent line P 388 (murine leukaemia) and the sub-line resistant to vincristine, P 388/VCR, were supplied by NCI (Frederick, USA). The tumour cells (10^6 cells) were inoculated on day 0 into the intraperitoneal cavity of female B6D2Fl mice (Iffa Credo, France) weighing from 18 to 20 g (groups of 8 to 10 animals).
Every day for 4 days, starting from day 1, the animals received: […]
30 to 60 minutes later, an administration by the i.p. route of 0.25 mg/kg of vincristine (used as a reference antitumour agent).
The tumour activity is expressed as follows: [formula]
The values are mean values obtained in independent experiments (± sem when n is greater than or equal to 3).

[3] = 100 mg/kg i.p. daily for 4 days

Compound	Reversion factors (cytotoxicity) with the line DC-3F/AD (line DC-3F/AD [1]; 0.5 μM compound)	Reversion factors (cytotoxicity) with the line DC-3F/AD (line DC-3F/AD [1]; 1 μM compound)	Reversion factors (cytotoxicity) with the line DC-3F/AD (line DC-3F/AD [1]; 5 μM compound)	VAR-MEAN (increase in ADR fluorescence), line DC-3F/AD (line DC-3F/AD [2]; 1.0 μM compound)	VAR-MEAN (increase in ADR fluorescence), line DC-3F/AD (line DC-3F/AD [2]; 5.0 μM compound)	VAR-MEAN (increase in ADR fluorescence), line DC-3F/AD (line DC-3F/AD [2]; […] compound)	T/C % (resistant line P/388/VCR; 50 mg/kg i.p. daily for 4 days) [%]	T/C % (resistant line P/388/VCR; [3]) [%]	VAR-MEAN (increase in ADR fluorescence), line DC-3F/AD (line DC-3F/AD [2]; 10 μM compound)
C=CCNc1nc(NCC=C)nc(N2CCC(NCC3c4ccccc4CCc4cc(OC)ccc43)CC2)n1 (racemic) [Example 31, 2,4-diallylamino-6-{4-[((R,S)-10,11-dihydro-5H-2-methoxydibenzo[a,d]cyclohepten-5-yl)methylamino]piperidin-1-yl)-1,3,5-triazine]	3.1	85.9	1913.4	9.4	30.8	26.6	159	177	
C=CCNc1nc(NCC=C)nc(N2CCC(NCC3c4ccccc4COc4ccccc43)CC2)n1 (racemic) [Example 19, 2,4-diallylamino-6-{4-[((R,S)-6,11-dihydro-dibenzo[b,e]oxepin-11-yl)methylamino]piperidin-1-yl}-1,3,5-triazine]	3.8	63	2525	13.1	25.5	22.6	167 ± 7	184 ± 7	25.3
C=CCNc1nc(NCC)nc(N2CCC(NCC3c4ccccc4CCc4ccccc43)CC2)n1 [Example 22, 2-allylamino-4-ethylamino-6-{4-[(10,11-dihydro-5H-dibenzo[a,d]cyclohepten-5-yl)methylamino]piperidin-1-yl}-1,3,5-triazine]	32	177	2499	15.1	23.1	21.9	159	165	24.9
C=CCNc1nc(NCC=C)nc(N2CCC(NCC3c4ccccc4C=Cc4ccccc43)CC2)n1 [Example 11, 2,4-diallylamino-6-{4-[(5H-dibenzo[a,d]cyclohepten-5-yl)methylamino]piperidin-1-yl}-1,3,5-triazine]	2	26	1408	12.7	24.5	20.2	156	168 ± 15	25.8
C=CCNc1nc(NCC=C)nc(NCC(O)CN2CCC(NC3c4ccccc4CCc4ccccc43)CC2)n1 (stereo not drawn) [Example 16, 2,4-diallylamino-6-{3-[4-(10,11-dihydro-5H-dibenzo[a,d]cyclohepten-5-ylamino)piperidin-1-yl]-2-hydroxypropylamino}-1,3,5-triazine]	1	0.9	1.8	9.9	10.4	11.8			12.9
C=CCNc1nc(NCC=C)nc(N2CCC(NCC3c4ccccc4NC(=O)c4ccccc43)CC2)n1 (racemic) [Example 27, 2,4-diallylamino-6-{4-[((R,S)-6,11-dihydro-dibenzo[b,e]-6-oxoazepin-11-yl)methylamino]piperidin-1-yl}-1,3,5-triazine]		1.1	2.1	0.0	2.2	0.0			
C=CCNc1nc(NCC=C)nc(NCCN2CCN(C3c4ccccc4CCc4ccccc43)CC2)n1 [Example 2, 2,4-Diallylamino-6-{2-[4-(10,11-dihydro-5H-dibenzo[a,d]cyclohepten-5-yl)piperazin-1-yl]ethylamino}-1,3,5-triazine]	0.8	1		10.1	10.2	14.7			10.5
C=CCNc1nc(NCC=C)nc(N2CCC(N(C)CC3c4ccccc4CCc4ccccc43)CC2)n1 [Example 30, 2,4-diallylamino-6-{4-[N-((10,11-dihydro-5H-dibenzo[a,d]cyclohepten-5-yl)methyl)-N-methylamino]piperidin-1-yl}-1,3,5-triazine]		2.3	834.0	5.9	17.8	12.3			19.0
C=CCNc1nc(NCC=C)nc(N2CCC(NCC3c4ccccc4-c4ccccc43)CC2)n1 [Example 13, 2,4-diallylamino-6-{4-[(fluoren-9-yl)methylamino]piperidin-1-yl}-1,3,5-triazine]	2.1	7.1	170	8.1	19.6	12.0			23.2
C=CCNc1nc(NCC=C)nc(N2CCC(NCC3c4ccccc4CS(=O)(=O)c4ccccc43)CC2)n1 (racemic) [Example 32, 2,4-diallylamino-6-{4-[((R,S)-6,11-dihydro-5,5-dioxo-dibenzo[b,e]thiepin-11-yl)methylamino]piperidin-1-yl}-1,3,5-triazine]		1.3	27.4	0.0	12.4	1.9			
C=CCNc1nc(NCC=C)nc(N2CCC(NC3c4ccccc4CCc4ccccc43)CC2)n1 [Example 4, 2,4-diallylamino-6-[4-(10,11-dihydro-5H-dibenzo[a,d]cyclohepten-5-ylamino)piperidin-1-yl]-1,3,5-triazine]	21	66	755	16.2	25.5	21.8			28.1
C=CCNc1nc(NCC=C)nc(N2CCC(CNC3c4ccccc4CCc4ccccc43)CC2)n1 [Example 23, 2,4-diallylamino-6-{4-[(10,11-dihydro-5H-dibenzo[a,d]cyclohepten-5-yl)aminomethyl]piperidin-1-yl}-1,3,5-triazine]		1.4	173	10.0	14.0	14.6			20.5
